Reference: patent US11236102B2, “Oxabicycloheptane prodrugs” (Lixte Biotechnology, Inc., priority 2015, dated 2022)
“Also recorded” adds a separate entry of the source.

Legend:
[1] = Pharmacokinetic study of 153 (iv, po) in SD rats: 153 and endothal in plasma, liver, brain; type: in vivo, SD rats; settings: for Endothal plasma concentration: individual rats
Experimental: The blood, liver and brain tissue samples were collected at predetermined times from rats. […] Compound were diluted shortly before use in 4% sodium bicarbonate for sterile injection (this is the standard pediatric solution of NaHCO3 with a pH of about 8.5).
Compound 153 was freshly prepared by diluting the drugs shortly before use in 4% sodium bicarbonate for sterile injection (this is the standard pediatric solution of NaHCO3 with a pH of about 8.5). The final concentrations of 153 solutions were 0.25 mg/mL. The 153 solutions were administered via iv or po route at dose volume of 5 ml/kg according to the latest body weight. Compound 157 was freshly prepared by diluting the drugs shortly before use in 4% sodium bicarbonate for sterile injection (this is the standard pediatric solution of NaHCO3 with a pH of about 8.5). The final concentrations of […] solutions were 0.3 mg/mL. The 157 solutions were administered via iv or po route at dose volume of 5 ml/kg according to the latest body weight.
Twelve (12) female SD rats per group were dosed by iv with 153 or 157. The rats were fasted overnight prior to dosing, with free access to water. Foods were withheld for 2 hours post-dose. Blood, liver and brain tissue samples in two animals each group were collected at each time point, within 10% of the scheduled time for each time point. Two extra animals were used for analytic method development.
Blood (>0.3 mL) were collected via aorta abdominalis in anaesthetic animals into tubes containing heparin at 15 min, 1, 2, 6, 10 and 24 hours after iv administration. Liver and brain tissues were collected immediately after animal death. The liver and brain tissues were excised and rinsed with cold saline to avoid blood residual. Upon collection, each sample was placed on ice and the blood samples were subsequently centrifuged (4° C., 11000 rpm, 5 min) to separate plasma.
The obtained plasma, liver and brain tissue samples were stored at −70° C. until LC-MS/MS analysis.
Two (2) female SD rats per group were dosed by po with 153 or 157. The rats were fasted overnight prior to dosing, with free access to water. Foods were withheld for 2 hours post-dose. Blood samples (>0.3 mL) were collected via aorta abdominalis in anaesthetic animals into tubes containing heparin at 30 min, 1, 2, 6, 10 and 24 hours after po administration.
To each sample, 20 μL IS-D (for blank samples, 20 μL acetonitrile:water (1:1) was added) and 300 μl acetonitrile was added. The sample mixture was vortexed for approximately 3 min. After centrifugation at 10000 rpm for 5 min at 4° C., 100 μL of the upper layer was transferred to a new tube and added 200 μL 0.4% formic acid in water (pH 6.0). The mixture was vortexed for approximately 3 min before injected onto the LC/MS/MS system for analysis.
On the day of the assay, the frozen liver and brain samples were thawed unassisted at room temperature. An about 200 mg weighed sample of each thawed tissue was placed into a plastic tube with water (0.6 mL) to facilitate homogenization. Tissue processing was conducted using a homogenizer for approximately 1 min, 200 μl homogenate was transferred into a fresh Eppendorf tube. To each tube, 50 μL IS-D was added and mixed. Then 600 ul acetonitrile was added and the sample mixture was vortexed for approximately 3 min. After centrifugation at 10000 rpm for 5 min at 4° C., 400 μL of the upper layer was transferred to a new tube and evaporate the supernatant to dryness at 35° C. Reconstitute the residue with 200 μL of 0.4% formic acid in water (pH6.0), and vortex for 3 min, submit for LC-MS/MS analysis.
Frozen unknown plasma samples were completely thawed at room temperature and vortexed thoroughly. With a pipette, 50 μL of plasma was transferred into a 2.0 mL Eppendorf tube. 50 μL of 0.1N HCl and 800 μL ethyl acetate were added into each sample. The sample mixture was vortexed for approximately 3 min.

in vivo = assay: in vivo; parameters: species or system SD rats; settings: rat, in vivo, iv, 1 mg/kg
Experimental: 105 was dissolved in 4% NaHCO3 in saline for IV administration. The detailed procedure of dosing solution preparation was presented in Appendix I.
Thirteen (13) animals were placed on the study. The animals in IV arm were free access to food and water. One extra animal was used for blank liver and plasma generation (5 mL per animal). The resulting blank liver and plasma was then applied to the development of bioanalytical method and sample bioanalysis for the entire study.
The IV injection was conducted via foot dorsal vein. Animals were free access to food and water before dose.
The animal is restrained manually. Approximately 150 μL of blood/time point is collected into sodium heparin tube via cardiac puncture for terminal bleeding (anesthetized under carbon dioxide). Blood sample will be put on ice and centrifuged to obtain plasma sample (2000 g, 5 min under 4° C.) within 10 minutes.
The animal will be euthanized with carbon dioxide inhalation. Open abdominal cavity with scissor to expose internal organs. Hold the carcass in an upright position and allow the organs to fall forward. Cut the connective tissues and remove the organs. Then the organs are rinsed with cold saline, dried on filtrate paper, placed into a screw-top tube and weighed, snap frozen by placing into dry-ice immediately.
Plasma and liver samples were stored at approximately −80° C. until analysis. The backup samples will be discarded after three weeks after in-life completion unless requested. The unused dosing solutions will be discarded within three weeks after completion of the study
Software: The PK parameters were determined by non-compartmental model of non-compartmental analysis tool, Pharsight Phoenix WinNonlin® 6.2 software.
Concentration data within 80%-120% of LLOQ was considered within normal instrumental variation and presented in the results. Terminal t1/2 calculation: Time points were automatic selected by “best fit” model for terminal half life estimation as the first option. Manual selection was applied when “best fit” could not well define the terminal phase.

O=C(O)C1C2CCC(O2)C1C(=O)O (stereo not drawn) [Endothal, 7-oxabicyclo[2.2.1]heptane-2,3-dicarboxylic acid]
detectability in brain samples ([1]; endothal after single iv 153 at 1.25 mg/kg, 1.25 mg/kg): not detectable; also recorded: undetectable | Cmax ([1]; female, SD, rat, in vivo, po, 1.25 mg/kg): 46.9 ng/mL | AUC ([1]; female, Sprague-Dawley, rat, in vivo, iv, 1.25 mg/kg): 378 ng·h/mL | Endothal plasma concentration ([1]; iv administration of 153, 10 hr): BLQ | Endothal plasma concentration ([1]; iv administration of 153, 24 hr): BLQ | Endothal plasma concentration ([1]; po administration of 153, 10 hr): BLQ | AUClast in liver ([1]; rat, in vivo, iv, 1.25 mg/kg): 10820 ng·h/g | AUC(0-last) in liver (in vivo): 3152 ng·h/g | AUC(0-∞) in liver (in vivo): 4896 ng·h/g
